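Interpolation was linear, between the two tested concentrations surrounding the appropriate level; five concentrations were tested over 48 hours in 96-well plates. Here, GI50 denotes the concentration required for 50% inhibition of growth. TGI marks complete inhibition of growth.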
Experiments:
Experiment in all cases: NCI tumour cell line growth inhibition, 48 h
[1] = tested on: KM12 colon
[2] = tested on: SK-MEL-28 melanoma
[3] = tested on: CCRF-CEM leukemia
[4] = tested on: NCI-H522 lung
[5] = tested on: SK-OV-3 ovarian
[6] = tested on: TK-10 renal
[7] = tested on: SK-MEL-5 melanoma
[8] = tested on: SR leukemia
[9] = tested on: HCT-116 colon
[10] = tested on: MDA-MB-231 breast
[11] = tested on: MCF7 breast
[12] = tested on: HT29 colon
[13] = tested on: T-47D breast
[14] = tested on: NCI-H23 lung
[15] = tested on: UACC-257 melanoma
[16] = tested on: SW-620 colon
[17] = tested on: SNB-19 CNS
[18] = tested on: U251 CNS
[19] = tested on: DU-145 prostate
[20] = tested on: M14 melanoma
[21] = tested on: ACHN renal
[22] = tested on: 786-0 renal
[23] = tested on: A549 NSCLC
[24] = tested on: OVCAR-5 ovarian
[25] = tested on: LOX IMVI melanoma
[26] = tested on: NCI/ADR-RES ovarian
[27] = tested on: SN12C renal
[28] = tested on: SF-539 CNS
[29] = tested on: NCI-H226 lung
[30] = tested on: HOP-62 NSCLC
[31] = tested on: RXF 393 renal
[32] = tested on: HS 578T breast
[33] = tested on: A498 renal
[34] = tested on: IGROV1 ovarian
[35] = tested on: PC-3 prostate
[36] = tested on: HOP-92 NSCLC
[37] = tested on: EKVX NSCLC
[38] = tested on: OVCAR-8 ovarian
[39] = tested on: HL-60(TB) leukemia
[40] = tested on: MDA-MB-435
[41] = tested on: UO-31 renal
[42] = tested on: BT-549 breast
[43] = tested on: OVCAR-4 ovarian
[44] = tested on: OVCAR-3 ovarian
[45] = tested on: SK-MEL-2 melanoma
[46] = tested on: NCI-H460 lung
[47] = tested on: MOLT-4 leukemia
[48] = tested on: SF-268 CNS

COc1cc(-c2nn(-c3ccc(NC(=O)NCCNS(=O)(=O)c4ccc(F)cc4)cc3)cc2-c2ccncc2)ccc1Cl
GI50 [1]: 390 nM | TGI [1]: 2030 nM | GI50 [2]: 1420 nM | TGI [2]: 9290 nM | GI50 [3]: 459 nM | TGI [3]: > 100000 nM | GI50 [4]: 295 nM | TGI [4]: 2700 nM | GI50 [5]: 705 nM | TGI [5]: 8150 nM | GI50 [6]: 1890 nM | TGI [6]: 6330 nM | GI50 [7]: 453 nM | TGI [7]: 1680 nM | GI50 [8]: 427 nM | TGI [8]: 3010 nM | GI50 [9]: 339 nM | TGI [9]: 1770 nM | GI50 [10]: 650 nM | TGI [10]: 3380 nM | GI50 [11]: 300 nM | TGI [11]: > 100000 nM | GI50 [12]: 318 nM | TGI [12]: 1230 nM | GI50 [13]: 733 nM | TGI [13]: 5560 nM | GI50 [14]: 632 nM | TGI [14]: 5180 nM | GI50 [15]: 1570 nM | TGI [15]: 4730 nM | GI50 [16]: 529 nM | TGI [16]: 12700 nM | GI50 [17]: 857 nM | TGI [17]: > 100000 nM | GI50 [18]: 409 nM | TGI [18]: 2490 nM | GI50 [19]: 387 nM | TGI [19]: 10800 nM | GI50 [20]: 324 nM | TGI [20]: 1530 nM | GI50 [21]: 2210 nM | TGI [21]: 8060 nM | GI50 [22]: 901 nM | TGI [22]: 6300 nM | GI50 [23]: 1920 nM | TGI [23]: 23100 nM | GI50 [24]: 1210 nM | TGI [24]: > 100000 nM | GI50 [25]: 556 nM | TGI [25]: 2880 nM | GI50 [26]: > 100000 nM | TGI [26]: > 100000 nM | GI50 [27]: 733 nM | TGI [27]: 8440 nM | GI50 [28]: 281 nM | TGI [28]: 965 nM | GI50 [29]: 1380 nM | TGI [29]: 7300 nM | GI50 [30]: 544 nM | TGI [30]: 51000 nM | GI50 [31]: 247 nM | TGI [31]: 888 nM | GI50 [32]: 453 nM | TGI [32]: 5980 nM | GI50 [33]: 389 nM | TGI [33]: 2180 nM | GI50 [34]: 795 nM | TGI [34]: 8400 nM | GI50 [35]: 453 nM | TGI [35]: 4750 nM | GI50 [36]: 1450 nM | TGI [36]: 5910 nM | GI50 [37]: 1320 nM | TGI [37]: > 100000 nM | GI50 [38]: 588 nM | TGI [38]: 5380 nM | GI50 [39]: 391 nM | TGI [39]: 2260 nM | GI50 [40]: 170 nM | TGI [40]: 418 nM | GI50 [41]: 2380 nM | TGI [41]: > 100000 nM | GI50 [42]: 782 nM | TGI [42]: 4950 nM | GI50 [43]: 1040 nM | TGI [43]: > 100000 nM | GI50 [44]: 246 nM | TGI [44]: 665 nM | GI50 [45]: 553 nM | TGI [45]: 2620 nM | GI50 [46]: 387 nM | TGI [46]: 1510 nM | GI50 [47]: 583 nM | TGI [47]: 3990 nM | GI50 [48]: 629 nM | TGI [48]: 5000 nM

From PubChem BioAssay (NCI)
